Test results taken from patent US6368788B1 (priority 1987, dated 2002).
Marks after values point to notes of the source that are not given here.

How the values were obtained:
[1] = Survival in LPS-induced endotoxic shock; format: in vivo, CBA mice
Description: The mortality results were evaluated using the Litchfield-Wilcoxon's probit analysis method and a computer program written to conduct probit analyses.

Rauscher MuLV = assay: Anti-viral response to Rauscher MuLV; format: in vivo, mice; details: days −2, −1, 0, +1, and +2; for Viremia: ± SEM
Source text: Innate mechanisms of anti-viral immunity are important to survival of the host. The Rauscher murine leukemia virus (MuLV) is an example of a highly virulent animal retrovirus infection, first isolated and characterized by Dr. Rauscher from BALB/c mouse tissues in 1962. […] The virus employed in present GLP/blinded study was a murine leukemia complex known to induce progressive erythroleukemia in mice (i.e., Rauscher MuLV and replication-defective Rauscher spleen focus-forming virus). Disease manifested within about 6 days with death by about 50 days. Measurements of splenomegaly, blood reverse transcriptase, virus plaque assays (i.e., XC-plaque assay for viremia using SC-1 host cells) and serum anti-viral antibody titers were used to assess infection. Spleens achieved about 2.0 grams in weight within 21 days of infection, as compared with a normal spleen weights in an uninfected animals of about 0.1 gram.
Mice were inoculated with Rauscher MuLV complex (0.1 ml/7.8×10^4 PFU/mL) on day 0 and sacrificed on day 21. Test groups were comprised of 10 mice and control groups 6 mice. Control articles included saline and AZT (in drinking water at about 1.25 mg/mouse/day≈63 mg/kg/day/mouse). […] A non-infected group of mice was also sacrificed on day 21 to provide normal control values.
In EXAMPLE 38, SC-1 cells were originally derived from murine embryos, and XC cells (a rat tumor cell line induced by Rous Sarcoma Virus) were obtained from the ATCC in Rockville, Md.

YAC-1 target cells = assay: NK cytotoxic activity of splenocytes on YAC-1 target cells; format: in vivo, C3H/HeJ mice; details: for Cytotoxicity Change (%): vs saline
M. bovis = format: in vivo, mice; details: Group 8; INH 5 mg/kg sc daily

Glu-Trp
Survivors (%) ([1]; 24 hrs after LD99 LPS ip, 10 μg/kg ip daily x3 prophylactic): 36% | Survivors ([1]; 24 hrs after LD99 LPS ip, 10 μg/kg ip daily x3 prophylactic, 11 animals): 4 | Survivors (%) ([1]; 24 hrs after LD99 LPS ip, 100 μg/kg ip daily x3 prophylactic): 80* % | Survivors ([1]; 24 hrs after LD99 LPS ip, 100 μg/kg ip daily x3 prophylactic, 10 animals): 8 | Survivors (%) ([1]; 30 hrs after LD99 LPS ip, 10 μg/kg ip daily x3 prophylactic): 9% | Survivors ([1]; 30 hrs after LD99 LPS ip, 10 μg/kg ip daily x3 prophylactic, 11 animals): 1 | Survivors (%) ([1]; 30 hrs after LD99 LPS ip, 100 μg/kg ip daily x3 prophylactic): 40* % | Survivors ([1]; 30 hrs after LD99 LPS ip, 100 μg/kg ip daily x3 prophylactic, 10 animals): 4 | Reduction Splenomegaly (%) (Rauscher MuLV; 0.002 mg/kg): −9% | Spleen Weight (mean ± SD) (Rauscher MuLV; 0.002 mg/kg): 0.49 ± 0.31 | Reduction Splenomegaly (%) (Rauscher MuLV; 0.005 mg/kg): −3% | Spleen Weight (mean ± SD) (Rauscher MuLV; 0.005 mg/kg): 0.47 ± 0.29 | Viremia (Rauscher MuLV; 0.005 mg/kg): 3.25 ± 0.27 log10PFU/ml | Reduction Splenomegaly (%) (Rauscher MuLV; 0.02 mg/kg): 12% | Spleen Weight (mean ± SD) (Rauscher MuLV; 0.02 mg/kg): 0.42 ± 0.32 | Reduction Splenomegaly (%) (Rauscher MuLV; 0.05 mg/kg): 30% | Spleen Weight (mean ± SD) (Rauscher MuLV; 0.05 mg/kg): 0.36 ± 0.11 | Viremia (Rauscher MuLV; 0.05 mg/kg): 2.99 ± 0.28 log10PFU/ml | Reduction Splenomegaly (%) (Rauscher MuLV; 0.17 mg/kg): 12% | Spleen Weight (mean ± SD) (Rauscher MuLV; 0.17 mg/kg): 0.42 ± 0.26 | Reduction Splenomegaly (%) (Rauscher MuLV; 0.5 mg/kg): −12% | Spleen Weight (mean ± SD) (Rauscher MuLV; 0.5 mg/kg): 0.48 ± 0.3 | Viremia (Rauscher MuLV; 0.5 mg/kg): 3.31 ± 0.39 log10PFU/ml | Reduction Splenomegaly (%) (Rauscher MuLV; 1.75 mg/kg): 3% | Spleen Weight (mean ± SD) (Rauscher MuLV; 1.75 mg/kg): 0.45 ± 0.39 | Reduction Splenomegaly (%) (Rauscher MuLV; 5 mg/kg): 6% | Spleen Weight (mean ± SD) (Rauscher MuLV; 5 mg/kg): 0.44 ± 0.15 | Viremia (Rauscher MuLV; 5 mg/kg): 3.43 ± 0.368 log10PFU/ml | % Cytotoxicity (mean +/− S.D.) (YAC-1 target cells; dose 1 (μg/kg ip daily 7 days)): 10.7 ± 14% | Cytotoxicity Change (%) (YAC-1 target cells; dose 1): 25 ↑ % | % Cytotoxicity (mean +/− S.D.) (YAC-1 target cells; dose 10 (μg/kg ip daily 7 days)): 14.3 ± 1.7% | Cytotoxicity Change (%) (YAC-1 target cells; dose 10): 67 ↑ % | % Cytotoxicity (mean +/− S.D.) (YAC-1 target cells; dose 1000 (μg/kg ip daily 7 days)): 14.9 ± 2.9% | Cytotoxicity Change (%) (YAC-1 target cells; dose 1000): 75* ↑ %

NNC(=O)c1ccncc1 [Isoniazid, reference compound]
Survival Mean (M. bovis): 57 ± 2
